According to US20200268864A1, “CANCER VACCINE COMPOSITIONS AND METHODS FOR USING SAME TO TREAT CANCER” (Dana-Farber Cancer Institute, Inc., priority 2017, published 2020):

What was measured:
PBM cells [1] = experiment: Cell death of PBM cells in culture; format: cell-based, mouse; details: 2.5 uM for 24 hours
[2] = test system: PPM tumors (Trp53−/−; Pten−/−; c-Myc); experiment: Orthotopic PPM tumor growth (bioluminescence); details: mouse, in vivo
Protocol: All animal experiments described in this study were performed according to the animal protocols approved by the DFCI Institutional Animal Care and Use Committee. Brca1^loxP/loxP [FVB/N] mice, bearing loxP sites in introns 4 and 13 of the Brca1 gene, and Trp53^loxP/loxP[FVB/N] mice bearing loxP in introns 2 and 10 of the p53 gene, were obtained from Dr. Jos Jonkers's laboratory (Netherlands Cancer Institute, Amsterdam, The Netherlands). These mice were intercrossed through multiple generations to create a colony of homozygous Trp53^loxP/loxP/Brca1^loxP/loxP double conditional knockout mice. Ovaries were harvested from 8-week-old female Trp53^loxP/loxP/Brca1^loxP/loxP mice. The ovaries were washed twice with phosphate-buffered and incubated in DMEM/F12 (Ham's) medium containing collagenase and dispase (stem cell technologies) for 40 min at 37° C. […]
Single cells were obtained by digestion of primary ovarian tumors in collagenase buffer and then cultured in MOT media (DMEM/F12, 0.6% FBS, 10 ng/ml EGF, hydrocortisone 1 μg/ml, cholera toxin 1 ng/ml, 100 μg/ml penicillin-streptomycin, 5 μM Y27632). […] The endpoints were determined by tumor burden and ascites. […]

[3] = test system: Brca1-proficient and Brca1-deficient tumor cells; experiment: Measurement of IC50 value in tumor cells (MTS, 72 h); format: cell-based; details: three pairs of models; for gemcitabine except PPM and PBM cells
Protocol: Tumor cells were seeded in 96-well plates at a density of 1000-3000/well and allowed to adhere overnight. Cells were then exposed to appropriate concentrations of therapeutic agents (or vehicle control) with continuous exposure for 72 h. Growth inhibition was measured by CellTiter Aqueous MTS reagent from Promega by comparing the absorbance at 490 nm of drug-treated cells to that of untreated controls set at 100%. 1C50 values were calculated using non-linear regression model (logarithmic inhibitor vs. normalized response-variable slope) in Graphpad Prism 7.

PBM cells [4] = experiment: Cytosolic dsDNA (PicoGreen) and micronuclei staining, PBM cells; format: cell-based, mouse; details: 2.5 μM, 24 h
Protocol: PBM and PPM cells were cultured on chambered cell culture slides (BD Falcon). Cells were treated with 2.5 μM olaparib or vehicle control (DMSO) for 24 hours. Following the treatment, cells were incubated with culture media containing PicoGreen double-stranded DNA stain (200-fold dilution, Life Technologies). After one-hour incubation, cells were fixed with 4% paraformaldehyde in PBS (Santa Cruz Biotechnology) for 10 minutes. Cells were then washed twice with PBS and stained with 300 nM DAPI (Thermo Fisher Scientific) for 10 minutes. Coverslips were mounted using ProLong Diamond Antifade Mountant (Thermo Fisher Scientific). Staining was imaged using a Leica SP5X laser scanning confocal microscope.

O=C(c1cc(Cc2n[nH]c(=O)c3ccccc23)ccc1F)N1CCN(C(=O)C2CC2)CC1 [olaparib, Olaparib]
cell death in PBM cells (PBM cells [1]): did not induce substantial cell death
progression of Brca-proficient PPM tumors [2]: little effect and not
IC50 values, Brca1-deficient lines in comparison to Brca1-proficient counterparts [3]: much more sensitive
cytosolic dsDNAs and micronuclei (PBM cells [4]): increased
